Reference: patent US8445636B2, “Antimicrobial and anticancer lipopeptides” (Yeda Research & Development Co. Ltd., priority 2003, dated 2013)
In brackets after ≈: the same amount, converted by molar mass. Where two headings read alike, the source gives them in different places. Non-standard residues stand in square brackets, D forms with d. Residues, ends and D or L forms follow the SMILES beside them. *: point of attachment. Palmitoyl = CCCCCCCCCCCCCCCC(=O)*; Lauroyl = CCCCCCCCCCCC(=O)*

Assays:
Assay type in all cases: cell-based
[1] = tested on: Candida albicans ATCC 10231; test: microbe, parasite or virus in culture
Summary of the method: (§1)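 Broth microdilution in RPMI 1640/0.165 M MOPS, 1×10^4 CFU/ml inoculum, 2-fold serial lipopeptide dilutions in water, pH 7.4 unless stated (pH 5.5 alternative). Incubated 24–48 h at 35 °C with agitation; growth read at A620. MIC = lowest concentration giving 100% growth inhibition.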

[2] = tested on: Cryptococcus neoformans ATCC MYA-422; test: microbe, parasite or virus in culture; settings: ATCC MYA-422, pH 7.4; for MIC: read-out: Minimal Inhibitory Concentration, Cyrptococcus neoformans (ATCC MYA-422)
E. coli D21 = tested on: E. coli D21
[3] = tested on: Pseudomonas aeruginosa ATCC 27853
Summary of the method: (§2)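 Broth microdilution: bacteria at 1×10^6 CFU/ml in LB medium (pH 7.4 unless stated; pH 5.5 also tested) mixed 1:1 with 2-fold serial lipopeptide dilutions in water, 18-20 h at 37° C. Growth read at 600 nm; MIC taken as lowest concentration giving 100% growth inhibition.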

[4] = tested on: Staphylococcus aureus ATCC 6538P
Summary of the method: as §2

M. laleus = settings: Table 3, short lipopeptides; pH 7.4
Summary of the method: as §2

[5] = tested on: Aspergillus fumigatus ATCC 26430; test: microbe, parasite or virus in culture
[6] = tested on: Cryptococcus neoformans ATCC 66031; test: microbe, parasite or virus in culture
Summary of the method: as §1

[7] = Cytotoxicity, XTT viability, non-cancer cells; settings: mouse, non-cancer cell line, 24 h incubation, read-out: LC50, 3T3
Experimental: Prostate cancer cell lines (CL1 and 22RV1; ATCC, USA) were grown in RPMI-1640 supplemented with 10% FCS (Biological Industries, Beit Haemek, Israel). N1H-3T3 mouse fibroblast cell line (ATCC, USA) was grown in DMEM supplemented with 10% bovine serum. To test cytotoxicity against the cancer cells, aliquots of medium containing 1×10^4 cells were distributed into a 96-well plate (Falcon). After one day, the media were replaced with 90 μl of fresh media and 10 μl of a solution containing different concentrations of the peptides. The plate was then incubated for 24 h before adding to each well 50 μl of XTT reaction solution (Biological Industries, Beit Haemek, Israel); viability was determined as previously described (Papo et al., (2003) J. Biol. Chem. 278:21018-23). The LC50 (concentration at which 50% of the cells die) for each peptide was obtained from the dose-dependent cell viability curves.

E. aerogenes ATCC 35029 = settings: ATCC 35029, pH 7.4
Summary of the method: as §2

[8] = tested on: Acinetobacter baumannii ATCC 19606
Summary of the method: as §2

[9] = tested on: Escherichia coli ATCC 25922
Summary of the method: as §2

E. coli ATCC 35218 = settings: ATCC 35218, pH 7.4
Summary of the method: as §2

[10] = ATCC 10231, pH 7.4, read-out: Minimal Inhibitory Concentration, Candida Albicans (ATCC 10231)
[11] = ATCC 26430, pH 7.4, read-out: Minimal Inhibitory Concentration, Aspergillus Fomigatus (ATCC 26430)

CCCCCCCCCCCCCCCC(=O)N[C@@H](CCCCN)C(=O)NCC(=O)NCC(=O)N[C@H](CCCCN)C(N)=O [PA-KGGK, Palmitoyl-Lys-Gly-Gly-D-Lys-NH2] (Palmitoyl-KGG[dK]-NH2)
MIC [1, 10]: 12.5 µM (≈ 7.82 µg/mL) | MIC [2]: 1.56 µM (≈ 0.976 µg/mL) | Minimal Inhibitory Concentration, E. coli-D21 (E. coli D21; D21, pH 7.4): 25 µM | Minimal Inhibitory Concentration, P. aeruginosa ATCC 27853 ([3]; ATCC 27853, pH 7.4): 12.5 µM | Minimal Inhibitory Concentration, S. aureus ATCC 6538P ([4]; ATCC 6538, pH 7.4): 50 µM | Minimal Inhibitory Concentration, M. laleus (M. laleus): 3.12 µM | MIC [5, 11]: 6.25 µM (≈ 3.91 µg/mL)

CCCCCCCCCCCCCCCC(=O)N[C@@H](CCCCN)C(=O)N[C@@H](CC(C)C)C(=O)N[C@H](CC(C)C)C(=O)N[C@@H](CCCCN)C(N)=O [PA-KLLK, Palmitoyl-Lys-Leu-D-Leu-Lys-NH2] (Palmitoyl-KL[dL]K-NH2)
MIC [1, 10]: 6.25 µM (≈ 4.61 µg/mL) | MIC [2]: 1.56 µM (≈ 1.15 µg/mL) | Minimal Inhibitory Concentration, E. coli-D21 (E. coli D21; D21, pH 7.4): 100 µM | Minimal Inhibitory Concentration, P. aeruginosa ATCC 27853 ([3]; ATCC 27853, pH 7.4): 100 µM | Minimal Inhibitory Concentration, S. aureus ATCC 6538P ([4]; ATCC 6538, pH 7.4): 3.12 µM | Minimal Inhibitory Concentration, M. laleus (M. laleus): 3.12 µM | MIC [5, 11]: 3.125 µM (≈ 2.31 µg/mL)

CCCCCCCCCCCC(=O)N[C@H](CC(C)C)C(=O)N[C@@H](CCCCN)C(=O)N[C@@H](CCCCN)C(=O)N[C@H](CC(C)C)C(=O)N[C@H](CC(C)C)C(=O)N[C@@H](CCCCN)C(=O)N[C@@H](CCCCN)C(=O)N[C@H](CC(C)C)C(=O)N[C@H](CC(C)C)C(=O)N[C@@H](CCCCN)C(=O)N[C@@H](CCCCN)C(=O)N[C@H](CC(C)C)C(N)=O [lipopeptide 22, (CH3-(CH2)10-CO-)-D-Leu-Lys-Lys-D-Leu-D-Leu-Lys-Lys-D-Leu-D-Leu-Lys-Lys-D-Leu-NH2] (Lauroyl-[dL]KK[dL][dL]KK[dL][dL]KK[dL]-NH2)
MIC ([6]; ATCC 66031, pH 5.5, read-out: Minimal inhibitory concentrations, C. Neofor. With serum): 1.56 µM (≈ 2.57 µg/mL) | MIC ([6]; ATCC 66031, pH 5.5, read-out: Minimal inhibitory concentrations, C. Neofor. Without serum): <0.78 µM | MIC ([6]; ATCC 66031, pH 7.4, read-out: Minimal inhibitory concentrations, C. Neofor. With serum): <0.78 µM | MIC ([6]; ATCC 66031, pH 7.4, read-out: Minimal inhibitory concentrations, C. Neofor. Without serum): <0.78 µM | MIC ([1]; ATCC 10231, pH 5.5, read-out: Minimal inhibitory concentrations, C. Albicans With serum): >100 µM | MIC ([1]; ATCC 10231, pH 5.5, read-out: Minimal inhibitory concentrations, C. Albicans Without serum): 100 µM (≈ 165 µg/mL) | Minimal Inhibitory Concentration, C. albicans ATCC 10231 ([1]; ATCC 10231, pH 7.4): 12.5 µM | MIC ([1]; ATCC 10231, pH 7.4, read-out: Minimal inhibitory concentrations, C. Albicans With serum): 100 µM (≈ 165 µg/mL) | MIC ([1]; ATCC 10231, pH 7.4, read-out: Minimal inhibitory concentrations, C. Albicans Without serum): 3.125 µM (≈ 5.15 µg/mL) | Minimal Inhibitory Concentration, C. neoformans ATCC MYA-422 [2]: 0.78 µM | Minimal inhibitory concentrations, E. Coli D21 (E. coli D21; D21, pH 5.5): 25 µM (≈ 41.2 µg/mL) | Minimal inhibitory concentrations, E. Coli D21 (E. coli D21; D21, pH 7.4): 25 µM (≈ 41.2 µg/mL) | CC50 at 24 h [7]: 50 µM | Minimal Inhibitory Concentration, E. aerogenes ATCC 35029 (E. aerogenes ATCC 35029): 50 µM | Minimal inhibitory concentrations, A. baumannii ATCC 19606 ([8]; ATCC 19606, pH 5.5): 25 µM (≈ 41.2 µg/mL) | Minimal inhibitory concentrations, A. baumannii ATCC 19606 ([8]; ATCC 19606, pH 7.4): 25 µM (≈ 41.2 µg/mL) | Minimal inhibitory concentrations, P. Aeruginosa ATCC 27853 ([3]; ATCC 27853, pH 5.5): 12.5 µM (≈ 20.6 µg/mL) | Minimal Inhibitory Concentration, P. aeruginosa ATCC 27853 ([3]; ATCC 27853, pH 7.4): 25 µM | Minimal inhibitory concentrations, P. Aeruginosa ATCC 27853 ([3]; ATCC 27853, pH 7.4): 25 µM (≈ 41.2 µg/mL) | Minimal inhibitory concentrations, E. Coli ATCC 25922 ([9]; ATCC 25922, pH 5.5): 50 µM (≈ 82.4 µg/mL) | Minimal inhibitory concentrations, E. Coli ATCC 25922 ([9]; ATCC 25922, pH 7.4): 75 µM (≈ 124 µg/mL) | Minimal inhibitory concentrations, S. aureus II ATCC 6538P ([4]; ATCC 6538, pH 5.5): >100 µM | Minimal Inhibitory Concentration, S. aureus ATCC 6538P ([4]; ATCC 6538, pH 7.4): 12.5 µM | Minimal inhibitory concentrations, S. aureus II ATCC 6538P ([4]; ATCC 6538, pH 7.4): 3.125 µM (≈ 5.15 µg/mL) | Minimal Inhibitory Concentration, E. coli ATCC 35218 (E. coli ATCC 35218): 25 µM | MIC ([5]; ATCC 26430, pH 5.5, read-out: Minimal inhibitory concentrations, A. Fumig. With serum): 100 µM (≈ 165 µg/mL) | MIC ([5]; ATCC 26430, pH 5.5, read-out: Minimal inhibitory concentrations, A. Fumig. Without serum): 75 µM (≈ 124 µg/mL) | Minimal Inhibitory Concentration, A. fumigatus ATCC 26430 ([5]; ATCC 26430, pH 7.4): 6.25 µM | MIC ([5]; ATCC 26430, pH 7.4, read-out: Minimal inhibitory concentrations, A. Fumig. With serum): 50 µM (≈ 82.4 µg/mL) | MIC ([5]; ATCC 26430, pH 7.4, read-out: Minimal inhibitory concentrations, A. Fumig. Without serum): 12.5 µM (≈ 20.6 µg/mL)
